These results are taken from patent publication US20050197350A1, “Novel quinoline, tetrahydroquinazoline, and pyrimidine derivatives and methods of treatment related to the use thereof” (TAISHO PHARMACEUTICAL CO., LTD., priority 2003, published 2005).

The experiment has as its target MCH receptor (Homo sapiens, UniProt Q99705). Nature of the experiment: High throughput functional screening FLIPR/FDSS6000 (intracellular Ca2+ evoked by MCH). It counts as cell-based. As to conditions: FLIPR/FDSS, antagonist activity vs 50 nM MCH, class by percent of control at 10^−7 M or IC50, read-out: class. Put shortly:
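For antagonist testing, compound-treated cells (30 min, 37 °C) were stimulated with 50 nM MCH and intracellular Ca2+ followed by Fluo4 fluorescence on FLIPR/FDSS6000. Receptor was a constitutively active, non-endogenous MCH receptor; dye loading 4 μM Fluo4-AM, 1 h, 37 °C.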

Where a name gives a salt, the structure may show the parent alone. Read-outs that look alike come from different tables or passages of the source.

In the case of `COc1nc(N[C@H]2CC[C@@H](NC(=O)c3ccc(Cl)cc3)CC2)ncc1C` [Example 3276, 4-chloro-N-{cis-4-[(4-methoxy-5-methylpyrimidin-2-yl)amino]cyclohexyl}benzamide], the IC50 is more than 200 nM.

As to `Cc1cc(N[C@H]2CC[C@@H](NC(=O)c3cccnc3Oc3ccc(Cl)cc3)CC2)nc2ccccc12` [Example 3093, 2-(4-Chloro-phenoxy)-N-[cis-4-(4-methyl-quinolin-2-ylamino)-cyclohexyl]-nicotinamide hydrochloride], the IC50 (table after the classification) is less than 50 nM.

On to `CCc1cc(N(C)C)nc(N[C@H]2CC[C@@H](NC(=O)c3ccc(F)c(F)c3)CC2)n1` [Example 3231, N-[cis-4-(4-Dimethylamino-6-ethyl-pyrimidin-2-ylamino)-cyclohexyl]-3,4-difluoro-benzamide hydrochloride], for which, for the setting “table after the classification”, the IC50 lay in the range of 50 to 200 nM.

Take `O=C(N[C@H]1CC[C@@H](Nc2ccc3ccccc3n2)CC1)c1ccc(Br)o1` [Example 3053, 5-Bromo-furan-2-carboxylic acid [cis-4-(quinolin-2-ylamino)-cyclohexyl]-amide hydrochloride]: the IC50 (table after the classification) is less than 50 nM.

Turning to `O=C(N[C@H]1CC[C@@H](Nc2ncccn2)CC1)c1ccc(F)c(F)c1` [Example 3144, 3,4-Difluoro-N-[cis-4-(pyrimidin-2-ylamino)-cyclohexyl]-benzamide hydrochloride], the IC50 (table after the classification) was more than 200 nM.

For `Cc1cnc(N[C@H]2CC[C@@H](NC(=O)[C@@H]3C[C@H]3c3cccc(Cl)c3)CC2)nc1N(C)C` (relative stereo) [Example 3317, trans-2-(3-chlorophenyl)-N-(cis-4-{[4-(dimethylamino)-5-methylpyrimidin-2-yl]amino}cyclohexyl)-cyclopropanecarboxamide], the IC50 was less than 50 nM.

Take `Cc1cnc(N[C@H]2CC[C@@H](NC(=O)c3ccc(F)c(F)c3)CC2)nc1N(C)C` [Example 3119, N-[cis-4-(4-Dimethylamino-5-methyl-pyrimidin-2-ylamino)-cyclohexyl]-3,4-difluoro-benzamide hydrochloride]: the IC50 (table after the classification) is less than 50 nM.

Take `CN(C)c1ccnc(N[C@H]2CC[C@@H](NC(=O)COc3ccc(Cl)c(Cl)c3)CC2)n1` [Example 3393, 2-(3,4-Dichloro-phenoxy)-N-[cis-4-(4-dimethylamino-pyrimidin-2-ylamino)-cyclohexyl]-acetamide hydrochloride]: the IC50 (table after the classification) was less than 50 nM.

With `O=C(N[C@H]1CC[C@@H](Nc2ccc3ccccc3n2)CC1)c1cccc(O)c1` [Example 3146, 3-Hydroxy-N-[cis-4-(quinolin-2-ylamino)-cyclohexyl]-benzamide hydrochloride], where the note is “table after the classification”, the IC50 was less than 50 nM.

`CN(C)c1ccnc(N[C@H]2CC[C@@H](NC(=O)c3ccc(F)c(F)c3)CC2)n1` [Example 3197, N-[cis-4-(4-Dimethylamino-pyrimidin-2-ylamino)-cyclohexyl]-3,4-difluoro-benzamide hydrochloride]: where the note is “table after the classification”, the IC50 fell in the range of 50 to 200 nM.

`CN(C)c1nc(N[C@H]2CC[C@@H](NC(=O)c3cccnc3Oc3ccccc3)CC2)ncc1-c1ccccc1` [Example 3136, N-[cis-4-(4-Dimethylamino-5-phenyl-pyrimidin-2-ylamino)-cyclohexyl]-2-phenoxy-nicotinamide hydrochloride]: for the setting “table after the classification”, the IC50 was more than 200 nM.

As for `CN(C)c1ccnc(N[C@H]2CC[C@@H](NC(=O)c3ccc(C(F)(F)F)nc3)CC2)n1` [Example 3212, N-[cis-4-(4-Dimethylamino-pyrimidin-2-ylamino)-cyclohexyl]-6-trifluoromethyl-nicotinamide hydrochloride], under “table after the classification”, the IC50 was more than 200 nM.

Take `O=C(N[C@H]1CC[C@@H](Nc2ccc3ccccc3n2)CC1)c1cccnc1Oc1ccc(Cl)cc1` [Example 3057, 2-(4-Chloro-phenoxy)-N-[cis-4-(quinolin-2-ylamino)-cyclohexyl]-nicotinamide hydrochloride]: the IC50 (table after the classification) was less than 50 nM.

Turning to `CNc1nc(N[C@H]2CC[C@@H](NCc3ccc(Br)cc3OC(F)(F)F)CC2)nc2c1CCCC2` [Example 9, N^2-[cis-4-(4-Bromo-2-trifluoromethoxy-benzyl)amino-cyclohexyl]-N^4-methyl-5,6,7,8-tetrahydro-quinazoline-2,4-diamine dihydrochloride], the IC50 (table after the classification) was more than 200 nM.

With `Cc1cc(N[C@H]2CC[C@@H](NC(=O)c3ccc(Cl)c(Cl)c3)CC2)nc2ccccc12` [Example 3078, 3,4-Dichloro-N-[cis-4-(4-methyl-quinolin-2-ylamino)-cyclohexyl]-benzamide hydrochloride], the IC50 (table after the classification) was less than 50 nM.

With `CN(C)c1nc(N[C@H]2CC[C@@H](NCc3ccc(Br)cc3OC(F)(F)F)CC2)nc2c1CCCC2` [Example 13, N^2-[cis-4-(4-Bromo-2-trifluoromethoxy-benzyl)-amino-cyclobexyl]-N^4,N^4-dimethyl-5,6,7,8-tetrahydro-quinazoline-2,4-diamine dihydrochloride], the IC50 (table after the classification) was more than 200 nM.
